Test results: paper PMC8251996 (2021)

Legend:
ds6 (DNA, duplex) CGTACG = test: fluorescence titration, independent equivalent sites; settings: Na+ (100 mM NaCl, 10 mM sodium phosphate); buffer not in material
[1] = system: ds10 (DNA, duplex) AAGAATTCTT; test: as above; settings: Na+ (100 mM NaCl, 10 mM sodium phosphate); buffer not in material

SMILES | K b (ds6 (DNA, duplex) CGTACG) | K b [1]
COc1cc(/C=C/c2ccc(O)cc2)cc(OC)c1 | (1.2±0.5)×10^6 M^-1 | (1.6±0.9)×10^6 M^-1
Oc1ccc(/C=C/c2cc(O)cc(O)c2)cc1 | (1.6±1.4)×10^6 M^-1 | (1.6±1.3)×10^6 M^-1
